# Literature values as cited in EP4101443A1, “HOT-MELT COATED PARTICLES WITH PH-DEPENDENT RELEASE” (HERMES PHARMA GmbH, priority 2021, dated 2022).
row,solubility [mg/mL],Compound
1,2.24,"CC(=O)Oc1ccccc1C(=O)O [ASA, acetylsalicylic acid]"
2,200,"CC(=O)N[C@@H](CS)C(=O)O [NAC, N-acetylcysteine]"
